Test [1] concerns the target T1, PPARγ (Homo sapiens, UniProt P37231).
T1 construct: gene PPARG; GST-fused human PPARγ-LBD
T1 sequence (P37231 231-505 limits assumed): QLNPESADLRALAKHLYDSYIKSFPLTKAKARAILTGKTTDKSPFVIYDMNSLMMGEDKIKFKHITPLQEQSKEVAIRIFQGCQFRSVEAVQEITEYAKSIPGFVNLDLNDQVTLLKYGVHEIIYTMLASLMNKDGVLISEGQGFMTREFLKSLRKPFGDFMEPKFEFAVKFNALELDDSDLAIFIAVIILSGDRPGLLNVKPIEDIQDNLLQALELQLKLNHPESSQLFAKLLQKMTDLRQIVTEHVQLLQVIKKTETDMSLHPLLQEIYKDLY
Description: LanthaScreen TR-FRET competitive binding assay. (In general: Time-resolved FRET reads energy transfer from a long-lived donor to a nearby acceptor.)

In test [2] the target is T1, PPARγ. Kind of test: LanthaScreen TR-FRET competitive binding assay (reference agonist; value not given).

The values below come from publication PMC5386545, “Madecassic acid, the contributor to the anti-colitis effect of madecassoside, enhances the shift of Th17 toward Treg cells via the PPARγ/AMPK/ACC1 pathway” (Cell Death & Disease, 2017).

As to `C[C@H]1[C@H](C)CC[C@]2(C(=O)O)CC[C@]3(C)C(=CC[C@@H]4[C@@]5(C)C[C@@H](O)[C@H](O)[C@@](C)(CO)[C@@H]5[C@H](O)C[C@]43C)[C@H]12` [madecassic acid], the affinity at PPARγ [1] corresponds to a Ki of 1.61 µM.
As for `CN(CCOc1ccc(CC2SC(=O)NC2=O)cc1)c1ccccn1` (centres unmarked) [rosiglitazone], the “LanthaScreen TR-FRET competitive binding assay (reference agonist); no value prin” value at PPARγ [2] is “Madecassic acid or rosiglitazone was cultured with GST-fused human PPARγ-LBD, terbium-labeled anti-GST antibody and a fluorescently labeled PPAR ligand”.
